Test results taken from US20090131437A1, “DISUBSTITUTED UREAS AS KINASE INHIBITORS” (CORIUM INTERNATIONAL, INC., priority 2005, published 2009).

Row | melting point | SMILES
1 | 146 to 147 °C | CNc1cc(Oc2ccc(NC(=O)Nc3cc(C(C)(C)C)nn3-c3cccc(C(=O)N4CCN(C)CC4)c3)cc2)ncn1 [Example 15, 1-{5-tert-Butyl-2-[3-(4-methyl-piperazine-1-carbonyl)-phenyl]-2H-pyrazol-3-yl}-3-[4-(6-methylamino-pyrimidin-4-yloxy)-phenyl]-urea]
2 | 141 to 142 °C | CC(C)(C)c1cc(NC(=O)Nc2ccc(Oc3cc(N)ncn3)cc2F)n(-c2ccc(F)cc2)n1 [Example 14, 1-[4-(6-Amino-pyrimidin-4-yloxy)-2-fluoro-phenyl]-3-[5-tert-butyl-2-(4-fluoro-phenyl]-2H-pyrazol-3-yl]-urea]
